Tests used:
[1] = system: mixed bacterial/fungal infectious otitis externa and infectious dermatitis; assay: Example 1: treatment of otitis externa and dermatitis in a Shih Tzu dog; type: in vivo; details: oral, four weeks, before treatment with the composition
Description: Conner's chest, neck, paws, and face were cleaned and treated twice daily with antimicrobial wipes (Douxo Chlorhexiding pads®) and an antimicrobial lotion (ResiKetoChlor®). The ears were cleaned once daily with a tris-EDTA/ketoconazole solution (TrizUltra plus Keto®) and treated twice daily with an amikacin otic preparation.
The animal had generalized mixed hypotrichosis/alopecia, erythema, hyperpigmentation, and lichenification with crusting over dorsal trunk, legs, paws, and ventrum. Hair on the face and neck was severely matted. The skin underlying the mats was crusted, with moist dermatitis and brown purulent exudate. Lymph node enlargement was palpated in the mandibular, prescapular, and popliteal node groups.
A generalized severe Malassezia (yeast) dermatitis was concentrated mostly on ventrum and paws. […] Fine-needle aspirates of peripheral lymph nodes (left prescapular and left popliteal) were consistent with reactive lymphadenopathy.
The otitis externa was treated initially by cleaning the ears with a salicylic acid based ear cleaner (Otoclean®) and instillation of 0.5 ml of the disclosed composition comprising Trihydroxy in each ear. Mats were removed and the dog was bathed and groomed over two days using (Splash plus® shampoo), followed by antimicrobial shampoo (Douxo Chlorhexidine® shampoo), followed by essential fatty acid cream rinse (Hylyt® cream rinse). […]

Stability in water = type: physicochemical
Description: 3-(trimethoxysilyl) propyldimethyloctadecyl ammonium chloride (hereinafter also referred to as “Trimethoxy”) 104, is illustrated in FIG. 2 only as a precursor to the Trihydroxy molecule, when hydrolyzed by addition to water, shown in FIG. 1. […] Conventional methods of use of Trimethoxy 104 includes addition of a dilute solution in methanol to water. The EPA label required for Trimethoxy compounds states: “Danger. Corrosive. Causes irreversible eye damage and skin burns. Methanol may cause blindness. May be fatal if inhaled. May be harmful if swallowed or absorbed through the skin.”
The compound must then be used within a short period of time, such as a few hours to at most 12 hours, to treat a surface or fabric to produce a permanent surface coating.

Compound: amoxicillin/clavulanate
- outcome of earlier conventional therapy [1]: failed

Compound: CCCCCCCCCCCCCCCCCC[N+](C)(C)CCC[Si](O)(O)O.[Cl-] [Trihydroxy, 3-(trihydroxysilyl) propyldimethyloctadecyl ammonium chloride]
- stability in water (Stability in water): stable with no other additives in water

Compound: OC(Cn1cncn1)(Cn1cncn1)c1ccc(F)cc1F [fluconazole]
- outcome of earlier conventional therapy [1]: failed

Compound: CCCCCCCCCCCCCCCCCC[N+](C)(C)CCC[Si](OC)(OC)OC.[Cl-] [Trimethoxy, 3-(trimethoxysilyl) propyldimethyloctadecyl ammonium chloride]
- stability in water (Stability in water): unstable in water
